# Experimental data taken from the Deep4Chem optical property database.
# Where “and” joins values, the source holds several entries; their conditions need not be identical. Equal entries are not always repeated.
# Assay: photoluminescence quantum yield (fraction); solvent given as SMILES
compound,measurement,setting,value
CCN(CC)c1ccc2c(c1)oc(=O)c1c(=O)oc3cc(C#Cc4ccc(C#N)cc4)ccc3c12,photoluminescence quantum yield,in CS(C)=O,0.1
same,photoluminescence quantum yield,in ClCCl,0.69
CC[n+]1c(C=C2C(=O)C(C=C3N(C)c4ccccc4C3(C)C)=C2[O-])sc2ccccc21,photoluminescence quantum yield,in CC(C)O,0.1
O=C1c2cc3ccccc3cc2C2=Nc3cccc[n+]3[B-](F)(F)N12,photoluminescence quantum yield,in ClCCl,0.86
CCCCCCOc1ccc2oc3c(c2c1)=CC1=C(c2ccccc2C)c2cc4c5cc(OCCCCCC)ccc5oc4n2[B-](F)(F)[N+]=31,photoluminescence quantum yield,in C1CCCCC1,0.96
same,photoluminescence quantum yield,in CCOC(C)=O,0.73
same,photoluminescence quantum yield,in CO,0.29
O=C1/C(=C\c2ccc(N(c3ccccc3)c3ccccc3)cc2)S(=O)(=O)c2ccccc21,photoluminescence quantum yield,in C1CCOC1,0.037
same,photoluminescence quantum yield,in C1COCCO1,0.324
same,photoluminescence quantum yield,in CC#N,0.002
same,photoluminescence quantum yield,in CC(C)=O,0.003
same,photoluminescence quantum yield,in CCOC(C)=O,0.036
same,photoluminescence quantum yield,in CN(C)C=O,0.024
same,photoluminescence quantum yield,in CO,0.021
same,photoluminescence quantum yield,in CS(C)=O,0.032
same,photoluminescence quantum yield,in Cc1ccccc1,0.559
same,photoluminescence quantum yield,in ClC(Cl)Cl,0.142
same,photoluminescence quantum yield,in ClCCl,0.022
CCCCCCCCCCCCOc1cc(C(=O)Nc2ccc(-c3ccc4c(c3)C(=O)c3ccccc3-4)cc2)cc(OCCCCCCCCCCCC)c1OCCCCCCCCCCCC,photoluminescence quantum yield,in C1CCOC1,0.04
Cc1cc(=O)oc2cc3cc(O)ccc3cc12,photoluminescence quantum yield,in CC#N,0.02
same,photoluminescence quantum yield,in CCO,0.35
CCCC1(CCC)c2cc(C=C(C#Cc3ccccc3)C#Cc3ccccc3)ccc2-c2ccc(C=C(C#Cc3ccccc3)C#Cc3ccccc3)cc21,photoluminescence quantum yield,in ClC(Cl)Cl,0.31
CCn1c2ccccc2c2cc(-c3cc(-c4ccc5c(c4)c4ccccc4n5CC)nc(OC)n3)ccc21,photoluminescence quantum yield,in C1CCOC1,0.48
same,photoluminescence quantum yield,in CCOC(C)=O,0.76
same,photoluminescence quantum yield,in CN(C)C=O,0.69
same,photoluminescence quantum yield,in Cc1ccccc1,0.68
same,photoluminescence quantum yield,in ClCCl,0.69
Cc1sc(-c2ccc(-c3nc(-c4ccccc4)c(-c4ccccc4)[nH]3)cc2)c(C)c1C1=C(c2c(C)n(C)c3ccccc23)C(F)(F)C(F)(F)C1(F)F,photoluminescence quantum yield,in C1CCOC1,0.084
C(#Cc1cc2ccc3cccc4ccc(c1)c2c34)c1ccccc1,photoluminescence quantum yield,in Cc1ccccc1,0.44
CCCCN1C(=O)c2cccc3c(C#CC#Cc4ccc5c6c(cccc46)C(=O)N(CCCC)C5=O)ccc(c23)C1=O,photoluminescence quantum yield,in ClCCl,0.81
CCCCC(CC)COc1ccc2nc(-c3ccc(-c4ccc(OC)cc4)s3)sc2c1 (centres undefined),photoluminescence quantum yield,in ClCCl,0.83
c1ccc(Cc2c3ccc(=[N+]4CCCCC4)cc-3oc3cc(N4CCCCC4)ccc23)cc1,photoluminescence quantum yield,in ClCCl,0.87
N#Cc1c(N2c3ccccc3C(c3ccccc3)(c3ccccc3)c3ccccc32)cccc1N1c2ccccc2C(c2ccccc2)(c2ccccc2)c2ccccc21,photoluminescence quantum yield,in Cc1ccccc1,0.67
O=c1oc2c(ccc3ccccc32)nc1-c1ccccc1,photoluminescence quantum yield,in CC#N,0.5
same,photoluminescence quantum yield,in CCCCCC,0.32
same,photoluminescence quantum yield,in CO,0.45
same,photoluminescence quantum yield,in c1ccccc1,0.46 and 0.534
Cc1cn2cc(-c3ccc([N+](=O)[O-])cc3)[n-][n+]2c1,photoluminescence quantum yield,in ClCCl,0.022
CC[N+]1(CC)CN2C(C)=CC(C)=C(C(=O)O)C2=N1,photoluminescence quantum yield,in CN(C)C=O,0.056
same,photoluminescence quantum yield,in O,0.622
c1ccc2c(c1)Oc1ccccc1N2c1ccc2c(c1)c1ccccc1n1c3ccccc3nc21,photoluminescence quantum yield,in O=P(c1ccccc1)(c1ccccc1)c1ccccc1Oc1ccccc1P(=O)(c1ccccc1)c1ccccc1,0.8
CSc1ccc(/C=C/c2cnc3ccccc3n2)cc1,photoluminescence quantum yield,in ClCCl,0.02
Fc1c(-c2nnc(-c3ccccc3)o2)c(-n2c3ccccc3c3ccccc32)c(F)c(-n2c3ccccc3c3ccccc32)c1-n1c2ccccc2c2ccccc21,photoluminescence quantum yield,in Cc1ccccc1,0.2
Cc1c2c(c(C)c3ccccc13)-c1c-2ccc2nc3ccccc3nc12,photoluminescence quantum yield,in ClC(Cl)Cl,0.02
COc1ccc(-c2csc(/C(C#N)=C/c3ccc(Cl)cc3Cl)n2)cc1,photoluminescence quantum yield,in CC#N,0.031
O=S1(=O)c2ccc(-c3ccc(-n4c5ccccc5c5ccccc54)cc3)cc2C2(c3ccccc3-c3ccccc32)c2cc(-c3ccc(-n4c5ccccc5c5ccccc54)cc3)ccc21,photoluminescence quantum yield,in ClCCl,0.86
Cc1ccc(CN(Cc2ccc(C)cc2)c2nc(C#N)c(N(Cc3ccc(C)cc3)Cc3ccc(C)cc3)nc2C#N)cc1,photoluminescence quantum yield,in ClC(Cl)Cl,0.69
C(#Cc1nc2ccccc2s1)c1ccc(N(c2ccc(C#Cc3nc4ccccc4s3)cc2)c2ccc(C#Cc3nc4ccccc4s3)cc2)cc1,photoluminescence quantum yield,in Cc1ccccc1,0.8
COc1cc(-c2nc3c4cccnc4c4ncccc4c3[nH]2)c(OC)cc1/C=C/c1ccncc1,photoluminescence quantum yield,in C1CCOC1,0.79
same,photoluminescence quantum yield,in CC#N,0.48
same,photoluminescence quantum yield,in CN(C)C=O,0.59
same,photoluminescence quantum yield,in Cc1ccccc1,0.34
CCCCCCCCCCCCN1C(=O)c2c(c3ccc4cc(-c5ccc(OC)cc5)c(OC)cc4c3c3c2ccc2cc(-c4ccc(OC)cc4)c(OC)cc23)C1=O,photoluminescence quantum yield,in ClCCl,0.196
CCCCN1/C(=C/C=C/C2=[N+](C)c3ccccc3C2(C)C)C(C)(C)c2cc(OC)ccc21,photoluminescence quantum yield,in CS(C)=O,0.03
